The text below walks through data of patent publication US20080221086A1, “Novel Inhibitors of Glutaminyl Cyclase” (PROBIODRUG AG, priority 2006, published 2008).

The IC50 is the concentration at which inhibition is half-maximal.

Structures are written as SMILES.

One test deals with hQC (Homo sapiens, UniProt Q16769). The experiment in a line: Fluorometric assay of glutaminyl cyclase (QC) inhibition, H-Gln-βNA or H-Gln-AMC substrate. Type of test: biochemical. As to conditions: compound from preparative synthesis, purified by chromatography; fluorescent assay; read-out: IC50 hQC. The method in brief: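 Fluorometric coupled assays at 30° C in Tris/HCl pH 8.0 with EDTA and pyroglutamyl aminopeptidase used either 0.2 mM H-Gln-βNA (320/410 nm) or H-Gln-AMC (380/460 nm), started by QC. Screening used 4 mM inhibitor at substrate 1 KM. Ki came from fitting progress curves to competitive inhibition.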
Sequence of hQC (Q16769 29-361): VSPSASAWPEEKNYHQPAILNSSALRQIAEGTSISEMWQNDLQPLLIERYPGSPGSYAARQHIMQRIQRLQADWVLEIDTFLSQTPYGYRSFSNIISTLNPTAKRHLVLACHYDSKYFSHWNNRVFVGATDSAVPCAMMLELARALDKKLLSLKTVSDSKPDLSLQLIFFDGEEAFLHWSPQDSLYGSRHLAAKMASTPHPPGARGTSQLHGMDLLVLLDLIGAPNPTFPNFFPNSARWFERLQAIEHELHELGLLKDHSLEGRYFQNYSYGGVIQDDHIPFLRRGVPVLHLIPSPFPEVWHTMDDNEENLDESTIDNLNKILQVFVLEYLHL
For `CC(/N=C1\NC(=O)N(c2ccc3[nH]cnc3c2)C1c1ccccc1C(F)(F)F)C(C)(C)C` (stereo not shown) [Compound 138, 1-(1H-Benzoimidazol-5-yl)-5-(2-trifluoromethyl-phenyl)-4-1,2,2-trimethyl-propylimino-imidazolidin-2-one], the IC50 worked out at 1.23 µM.

The same test, now with this note: read-out: IC50.
Consider `O=C1N/C(=N/Cn2nnc3ccccc32)C(c2ccc(Cl)cc2)N1c1ccc2[nH]cnc2c1` (stereo not shown) [Compound 128, 1-(1H-Benzoimidazol-5-yl)-4-benzotriazol-1-ylmethylimino-5-(4-chloro-phenyl)-imidazolidin-2-one], for which the IC50 stood at 3.1 µM. On the same count and under the same terms, the same measure for `O=C1N/C(=N\C2CCCC2)C(c2ccc(N3CCCC3)cc2)N1c1ccc2[nH]cnc2c1` (stereo not shown) [Compound 129, 1-(1H-Benzoimidazol-5-yl)-4-cyclopentylimino-5-(4-pyrrolidin-1-yl-phenyl)-imidazolidin-2-one]: 0.004 µM; for `CC(CC1/C(=N/C2CCCCCC2)NC(=O)N1c1ccc2nc[nH]c2c1)CC(C)(C)C` (stereo not shown) [Compound 130, 1-(3H-Benzoimidazol-5-yl)-4-cycloheptylimino-5-(2,4,4-trimethyl-pentyl)-imidazolidin-2-one]: 7.6 µM; for `S=C1N/C(=N/CCCc2ccccc2)C(c2cc(Br)cc(Br)c2)N1c1ccc2[nH]cnc2c1` (stereo not shown) [Compound 131, 1-(1H-Benzoimidazol-5-yl)-5-(3,5-dibromo-phenyl)-4-3-phenyl-propylimno-imidazolidine-2-thione]: 5.8 µM. Still for that read-out and setting: the same measure for `S=C1N/C(=N/Cc2ccc3[nH]ccc3c2)C(c2cc(Br)cc(Br)c2)N1c1ccc2nc[nH]c2c1` (stereo not shown) [Compound 132, 1-(3H-Benzoimidazol-5-yl)-5-(3,5-dibromo-phenyl)-4-1H-indol-5-ylmethylimino-imidazolidine-2-thione]: 4.9 µM; for `S=C1N/C(=N/Cc2ccccc2)C(c2ccc(Br)cc2)N1c1ccc2[nH]cnc2c1` (stereo not shown) [Compound 133, 1-(1H-Benzoimidazol-5-yl)-4-benzylimino-5-(4-bromo-phenyl)-imidazolidine-2-thione]: 5.8 µM; for `O=C(C/N=C1\NC(=S)N(c2ccc3[nH]cnc3c2)C1c1c(F)ccc(Cl)c1F)N1CCCC(O)C1` (stereo not shown) [Compound 134, 2-(1-(1H-benzo[d]imidazol-5-yl)-5-(3-chloro-2,6-difluorophenyl)-2-thioxoimidazolidin-4-ylideneamino)-1-(3-hydroxypiperidin-1-yl)ethanone]: 2.2 µM. The same measure, in the same setting: the same measure for `O=C(C/N=C1\NC(=O)N(c2ccc3[nH]cnc3c2)C1c1ccccc1Cl)N1CCSCC1` (stereo not shown) [Compound 135, 1-(1H-Benzoimidazol-5-yl)-5-(2-chloro-phenyl)-4-2-oxo-2-thiomorpholin-4-yl-ethylimino-imidazolidin-2-one]: 5.8 µM; for `CCc1ccccc1C1/C(=N/C2CCCc3ccccc32)NC(=S)N1c1ccc2[nH]cnc2c1` (stereo not shown) [Compound 136, 1-(1H-Benzoimidazol-5-yl)-5-(2-ethyl-phenyl)-4-1,2,3,4-tetrahydro-naphthalen-1-yliminoimidazolidine-2-thione]: 6.7 µM; for `S=C1NC(=NCCc2cccs2)C(c2cc3c(cc2Br)OCO3)N1c1ccc2nc[nH]c2c1` (stereo not shown) [Compound 137, 1-(3H-Benzoimidazol-5-yl)-5-(6-bromo-benzo1,3dioxol-5-yl)-4-2-thiophen-2-yl-ethylimino-imidazolidin-2-thione]: 4 µM. Take `CC(/N=C1\NC(=O)N(c2ccc3[nH]cnc3c2)C1c1ccccc1C(F)(F)F)C(C)(C)C` (stereo not shown) [Compound 138, 1-(1H-Benzoimidazol-5-yl)-5-(2-trifluoromethyl-phenyl)-4-1,2,2-trimethyl-propylimino-imidazolidin-2-one]: the IC50 turned out to be 0.004 µM.

In the case of `S=C1N/C(=N\C(Cc2ccccc2)c2ccccc2)C(c2cc3c(cc2Br)OCO3)N1c1ccc2[nH]cnc2c1` (stereo not shown) [Compound 139, 1-(1H-Benzoimidazol-5-yl)-5-(6-bromo-benzo1,3dioxol-5-yl)-4-1,2-diphenyl-ethylimino-imidazolidine-2-thione], the IC50 is 9.4 µM.

`Cc1ccc(C2/C(=N\c3cccc(C#N)c3)NC(=S)N2c2ccc3[nH]cnc3c2)c(C)c1` (stereo not shown) [Compound 140, 3-(1-(1H-benzo[d]imidazol-5-yl)-5-(2,4-dimethylphenyl)-2-thioxoimidazolidin-4-ylideneamino)benzo-nitrile]: the IC50 is 8.5 µM.

With `C/N=C1/NC(=S)N(c2ccc3[nH]cnc3c2)C1c1ccc(C)cc1` (stereo not shown) [Compound 141, 1-(1H-Benzoimidazol-5-yl)-4-methylimino-5-p-tolyl-imidazolidine-2-thione], the IC50 was determined as 9.4 µM.

Take `Cc1nc[nH]c1C1/C(=N/C2CCCCC2O)NC(=O)N1c1ccc2[nH]cnc2c1` (stereo not shown) [Compound 142, 3-(1H-Benzoimidazol-5-yl)-5-2-hydroxy-cyclohexylimino-5′-methyl-1,3,4,5-tetrahydro-3′H-4,4′biimidazolyl-2-one]: the IC50 was found to be 8.5 µM.

In the case of `O=C(C/N=C1\NC(=S)N(c2ccc3[nH]cnc3c2)C1c1cc2c(cc1Br)OCO2)NN1CCCCC1` (stereo not shown) [Compound 143], the IC50 is 2.2 µM.

Consider `O=C(C/N=C1\NC(=S)N(c2ccc3[nH]cnc3c2)C1c1ccccc1C(F)(F)F)N1CCCCC1` (stereo not shown) [Compound 144, 2-1-(1H-Benzoimidazol-5-yl)-2-thioxo-5-(2-trifluoromethyl-phenyl)-imidazolidin-(4Z)-ylideneamino-1-piperidin-1-yl-ethanone], for which the IC50 is 1.3 µM. On the same count and under the same terms, with `Cc1ccc(C2/C(=N\Cc3ccc4[nH]ccc4c3)NC(=S)N2c2ccc3[nH]cnc3c2)cc1` (stereo not shown) [Compound 145, 1-(1H-Benzoimidazol-5-yl)-4-1H-indol-5-ylmethylimino-5-p-tolyl-imidazolidine-2-thione] the figure was 4 µM. On to `S=C1N/C(=N\C2CCc3ccccc32)C(c2ccc(Br)cc2)N1c1ccc2[nH]cnc2c1` (stereo not shown) [Compound 146, 1-(1H-Benzoimidazol-5-yl)-5-(4-bromo-phenyl)-4-indan-1-ylimino-imidazolidine-2-thione], for which the IC50 is 1.3 µM. The same measure, in the same setting: the same measure for `O=C1CCCN1CCC/N=C1\NC(=S)N(c2ccc3[nH]cnc3c2)C1c1ccc(Br)cc1` (stereo not shown) [Compound 147, 1-{3-1-(3H-Benzoimidazol-5-yl)-5-(4-bromo-phenyl)-2-thioxo-imidazolidin-(4Z)-ylideneamino-propyl}-pyrrolidin-2-one]: 5.8 µM. Regarding `O=C1N/C(=N/Cn2nnc3ccccc32)C(c2cc(F)cc(F)c2)N1c1ccc2[nH]cnc2c1` (stereo not shown) [Compound 148, 1-(1H-Benzoimidazol-5-yl)-4-benzotriazol-1-ylmethylimino-5-(3,5-difluoro-phenyl)-imidazolidin-2-one], the IC50 was 3.1 µM. On the same count and under the same terms, the same measure for `FC(F)(F)c1ccccc1/N=C1\NC(=S)N(c2ccc3[nH]cnc3c2)C1C1=CCCCC1` (stereo not shown) [Compound 149, 1-(1H-Benzoimidazol-5-yl)-5-cyclohex-1-enyl-4-2-trifluoromethyl-phenylimino-imidazolidine-2-thione]: 6.7 µM; for `CC(CC1/C(=N/C2CCCc3ccccc32)NC(=S)N1c1ccc2[nH]cnc2c1)CC(C)(C)C` (stereo not shown) [Compound 150, 1-(1H-Benzoimidazol-5-yl)-4-1,2,3,4-tetrahydro-naphthalen-1-ylimino-5-(2,4,4-trimethyl-pentyl)-imidazolidine-2-thione]: 6.7 µM; for `CSc1ccc(C2/C(=N\Cn3nnc4ccccc43)NC(=S)N2c2ccc3[nH]cnc3c2)cc1` (stereo not shown) [Compound 151, 1-(1H-Benzoimidazol-5-yl)-4-benzotriazol-1-ylmethylimino-5-(4-methylsulfanyl-phenyl)-imidazolidine-2-thione]: 0.004 µM.
